From paper PMC6413339 (EBioMedicine, 2019)

Assays:
FLT3 = biological target: T1, FLT3 (Homo sapiens, UniProt P36888); assay: Cell-free kinase assay, single dose (Reaction Biology, ADP-Glo); format: biochemical; conditions: inhibitor 500 nM; 100 μM ATP; average of duplicate
T1 construct: purchased Invitrogen PV3182
T1 sequence (P36888 564-993 limits assumed): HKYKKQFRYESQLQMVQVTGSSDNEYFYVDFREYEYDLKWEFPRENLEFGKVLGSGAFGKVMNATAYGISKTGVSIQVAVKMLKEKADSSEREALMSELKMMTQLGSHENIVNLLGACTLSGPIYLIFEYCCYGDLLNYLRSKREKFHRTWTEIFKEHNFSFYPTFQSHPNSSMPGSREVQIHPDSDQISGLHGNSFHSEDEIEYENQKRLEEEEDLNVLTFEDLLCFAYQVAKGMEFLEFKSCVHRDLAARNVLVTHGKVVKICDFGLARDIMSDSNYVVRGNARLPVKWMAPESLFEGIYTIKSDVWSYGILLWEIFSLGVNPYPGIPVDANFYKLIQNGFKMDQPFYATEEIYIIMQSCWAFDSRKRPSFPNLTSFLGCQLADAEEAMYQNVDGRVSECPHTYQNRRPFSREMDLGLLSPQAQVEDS
Method: Cell-free kinase activity assays were performed at Reaction Biology Corporation. […] DMSO was used as control. […] Experiments were performed in duplicates. The concentrations of kinases and substrates used in the assays are indicated on Table S1. Kinase activity was quantified using the ADP-Glo™ Kinase Assay System (Promega, Madison, WI) following the manufacturer's recommendations.

MOLM-14 cells = assay: Antiproliferative activity (CellTitre-Blue, 72 h); format: cell-based, human; conditions: Homo sapiens, MOLM-14; 72 h incubation, triplicates; read-out: IC50 (mean ±SD, nM) MOLM-14
Method: (§1) Cells were seeded into 96-well tissue culture-treated plates at 2.0 × 10^4 cells/mL for up to 24 h. DMSO stock solutions of compounds were serially diluted first in DMSO and subsequently into RPMI before being added to the cell cultures in triplicates, with 10 μM being the highest tested concentration. The plates were incubated for 72 h as above. The CellTitre-Blue assay (Promega, Madison WI) was then added to the cultures and incubated a further 4 h before the fluorescence measured following the manufacturers recommendations. The fluorescence data from compounds were normalized to that DMSO and the resulting data fitted to a non-linear regression equation to obtain IC50 using GraphPad Prism 5.0 Software (La Jolla, CA, USA).

[1] = system: MOLM-14 (ITD, D835Y) cells; assay: Antiproliferative activity (CellTitre-Blue, 72 h); format: cell-based, human; conditions: 72 h incubation, triplicates; listed as 20 (HSN459); read-out: IC50 (mean ±SD, nM) MOLM-14 (ITD, D835Y)
Method: as §1

MV4–11 cells = assay: Antiproliferative activity (CellTitre-Blue, 72 h); format: cell-based, human; conditions: Homo sapiens, MV4-11, 72 h, 72 h incubation, triplicates; read-out: IC50 (mean ±SD, nM) MV4–11
Method: as §1

[2] = system: MOLM-14 (ITD, F691 L) cells; assay: Antiproliferative activity (CellTitre-Blue, 72 h); format: cell-based, human; conditions: 72 h incubation, triplicates; listed as 20 (HSN459); read-out: IC50 (mean ±SD, nM) MOLM-14 (ITD, F691 L)
Method: as §1

Src = biological target: T2, Src (Homo sapiens, UniProt P12931); assay: Cell-free kinase assay (Reaction Biology, ADP-Glo); format: biochemical
T2 construct: purchased Invitrogen PR4336E
T2 sequence (P12931 whole entry): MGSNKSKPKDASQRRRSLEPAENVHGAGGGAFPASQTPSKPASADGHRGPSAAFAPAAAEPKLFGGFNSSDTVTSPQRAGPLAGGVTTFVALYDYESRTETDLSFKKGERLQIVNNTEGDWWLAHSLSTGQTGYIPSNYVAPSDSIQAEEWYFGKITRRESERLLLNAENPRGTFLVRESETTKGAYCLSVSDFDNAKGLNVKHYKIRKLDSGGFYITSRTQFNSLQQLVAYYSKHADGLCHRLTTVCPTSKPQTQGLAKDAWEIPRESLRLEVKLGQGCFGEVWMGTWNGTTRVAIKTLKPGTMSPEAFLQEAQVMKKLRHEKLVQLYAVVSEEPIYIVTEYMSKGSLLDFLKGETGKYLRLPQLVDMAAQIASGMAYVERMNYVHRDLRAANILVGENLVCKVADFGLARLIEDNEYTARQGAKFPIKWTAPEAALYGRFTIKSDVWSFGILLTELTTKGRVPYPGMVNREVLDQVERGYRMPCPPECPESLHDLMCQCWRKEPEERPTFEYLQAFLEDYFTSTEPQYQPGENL
Method: (§2) Cell-free kinase activity assays were performed at Reaction Biology Corporation. Briefly, kinases were incubated with substrates, 100 μM ATP and a 3-fold serial dilution of compounds starting at 1 μM. DMSO was used as control. […] Experiments were performed in duplicates. The concentrations of kinases and substrates used in the assays are indicated on Table S1. Kinase activity was quantified using the ADP-Glo™ Kinase Assay System (Promega, Madison, WI) following the manufacturer's recommendations.

FLT3-ITD = FLT3-ITD (Homo sapiens, UniProt P36888, ITD); assay: Cell-free kinase assay, dose-response (Reaction Biology, ADP-Glo); format: biochemical; conditions: FLT3-ITD 100 nM; ATP 100 μM; read-out: IC50 against FLT3-ITD
Method: as §2

MV4–11-luc cells = assay: In vivo efficacy, orthotopic human AML model
Method: The in vivo efficacy of compounds was assessed in an orthotopic human AML model in NSG (NOD scid gamma, NOD-scid IL2Rg^null) mice that were bred at University of Maryland Baltimore (mating pairs acquired from Jackson Laboratories; Maine). […]. Three days later, engraftment was assessed by imaging on a Xenogen IVIS-2 Imaging System (Alameda) after an intraperitoneal (IP) injection of 150 mg/kg luciferin. Mice were sorted into four or five groups (n = 5) so that mean intensity (i.e., disease burden) was equal. Dosing started on day of sorting. Compounds were dissolved in 85% PBS (pH 7.4) buffer containing 10% DMSO and 5% Cremophore. The vehicle (buffer without compounds) was used as control. Mice were injected 3 to 5 days per week via IP injection. Mice were weighed on day of dosing and imaged once per week. […]. All mice were housed in a 12-h light/dark cycle with access to food and water ad libitum. Studies were performed with Institutional Animal Care and Use Committee (UMB and Purdue University) approval.
[…]. Female mice were dosed daily for 5 days via intraperitoneal injection and then monitored for an additional week for weight loss, a sign of toxicity in mice. […] To evaluate the anti-leukemic efficacy in vivo, six-week-old female NSG or NRG mice were injected intravenously with FLT3-ITD expressing acute myeloid leukemia cells (MV4–11), expressing luciferase. […] Dosing (i.p) with the compounds was then started. The mice were dosed with 25 mg/kg of the compounds three times a week (MWF). […] […].

SMILES: Cc1ncc(C(=O)Nc2ccc(CN3CCN(C)CC3)c(C(F)(F)F)c2)cc1C#Cc1cnc(N)c2ncccc12 [Compound 20]
- inhibition at 0.5 µM (FLT3): 97%
- IC50 (MOLM-14 cells): 0.2 ± 0.002 nM
- IC50 [1]: 4 ± 0.02 nM
- IC50 (MV4–11 cells): 0.3 ± 0.004 nM
- IC50 [2]: 0.9 ± 0.004 nM
- IC50 (Src; Src 0.6 nM, ATP 100 μM, read-out: IC50 against Src): 12.2 nM
- inhibition at 0.5 µM (Src; inhibitor 500 nM, 100 μM ATP, average of duplicate): 100%
- IC50 (FLT3-ITD): 4.8 nM
- body weight in efficacy study (MV4–11-luc cells; 25 mg/Kg i.p. three times a week, after one week): lost weight
- reduction in leukemia burden (MV4–11-luc cells; 25 mg/kg i.p. three times a week (MWF), NSG or NRG mice): > 99%
- tolerability in efficacy study (MV4–11-luc cells; dose reduced to 10 mg/kg): tolerable
